Columns and labels:
Type in all cases: in vivo
[1] = system: adult unfed cat fleas (Ctenocephalides felis); assay: Ctenocephalides felis oral test; conditions: 48 h, read-out: activity (mortality)
Experimental: Ctenocephalides felis—Oral Test
Solvent: dimethyl sulfoxide
To produce a suitable preparation of active compound, 10 mg of active compound are dissolved in 0.5 mL solvent, and the concentrate is diluted with citrated cattle blood to the desired concentration.
Approximately 20 adult unfed cat fleas (Ctenocephalides felis) are placed in a flea chamber whose top and bottom is covered with gauze. A chamber whose bottom is sealed with parafilm, is filled with the blood-compound solution and placed on top of the flea chamber, so that the fleas can suck the blood. The blood chamber is heated to 37° C. whereas the flea chamber is kept at room temperature.
After 2 days mortality in % is determined. 100% means all the fleas have been killed; 0% means none of the fleas have been killed.

[2] = system: fall armyworm larvae (Spodoptera frugiperda); assay: Spodoptera frugiperda spray test; conditions: 168 h, application rate 100 g/ha, after 7 days, maize leaf sections
In short: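 Compound mixed with solvent, diluted with 1000 ppm emulsifier water to test concentrations; sprayed on maize leaf pieces; dried; larvae added; mortality (%) scored at 7 d.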

[3] = system: green peach aphid (Myzus persicae); assay: Myzus persicae oral test; conditions: 120 h, read-out: activity (mortality)
In short: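 Compound was dissolved at 1 part by weight in 100 parts acetone, then diluted with water to test concentration and combined with IPL41 insect medium (33%+15% sugar). A mixed aphid population fed on this through a parafilm seal, and mortality (%) was scored after 5 days.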

[4] = system: adult engorged female ticks (Rhipicephalus microplus); assay: Rhipicephalus (Boophilus) microplus injection test; conditions: 168 h, application rate 4 μg/tick, egg deposition after 7 days, read-out: activity (efficacy: infertile eggs)
In short: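 Five adult engorged female ticks injected into the abdomen with 1 μL compound solution in DMSO, then held in a climate chamber. Fertile egg deposition assessed after 7 days, unclear eggs kept until hatching (about 42 days); efficacy 100% = all eggs infertile, 0% = all fertile.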

[5] = system: adult cat fleas (Ctenocephalides felis); assay: Ctenocephalides felis in-vitro contact test, adult cat flea; conditions: application rate 5 μg/cm^2 (=500 g/ha), after 48 hours, read-out: activity (efficacy: fleas dead or moribund)
In short: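 Acetone solutions of compound were coated onto inner walls of glass tubes (900 ppm giving 5 μg/cm^2) and dried; 5-10 adult C. felis were then held 48 h at room temperature. Efficacy = % fleas dead or moribund, judged by inability to escape a 45-50° C heating plate within 5 min.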

[6] = system: Rhipicephalus (Boophilus) microplus larvae (strain Parkhurst, resistant against synthetic pyrethroids); assay: Rhipicephalus (Boophilus) microplus in-vitro contact test, larval cattle tick; conditions: after 48 hours, read-out: activity (efficacy: larvae dead or moribund); for pest or weed control at 1 µg/cm2, 100 g/ha: application rate 1 μg/cm^2 (=100 g/ha); for pest or weed control at 5 µg/cm2, 500 g/ha: application rate 5 μg/cm^2 (=500 g/ha)
In short: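 Acetone solutions were coated onto glass tube walls, giving 5 μg/cm^2 at 900 ppm. Once dry, 20–50 pyrethroid-resistant Parkhurst larvae were added per tube and held 48 h at 27 °C and 85% RH. Efficacy was scored by negative geotaxis as the percentage of dead or moribund larvae.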

[7] = system: adult mosquitoes Aedes aegypti strain MONHEIM; assay: Aedes aegypti test (AEDSAE surface treatment & contact assay); conditions: surface concentration 20 mg/m^2, exposure 30 minutes, 24 hours after contact, read-out: efficacy (mortality)
Experimental: Aedes aegypti Test (AEDSAE Surface Treatment & Contact Assay)
(§1) Solvent: Aceton+2000 ppm rapeseed oil methyl ester (RME)
In order to produce a sufficient, active ingredient containing solution it is necessary to solve the test compound in the solvent-mix (acetone at 2 mg/ml/RME 2000 ppm). This solution is pipetted onto a glazed tile and after evaporation of the acetone, adult mosquitoes of the species Aedes aegypti strain MONHEIM are placed onto the dried surface. The exposure time is 30 minutes.
(§2) Mortality in percent (%) is determined 24 hours after contact of the insects to the treated surface. 100% mortality means that all tested insects are dead, whereas 0% means that no insect died.

[8] = system: adult brown dog ticks (Rhipicephalus sanguineus); assay: Rhipicephalus sanguineus in-vitro contact test, adult brown dog ticks; conditions: application rate 5 μg/cm^2 (=500 g/ha), after 48 hours, read-out: activity (efficacy: ticks dead or moribund)
In short: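 Acetone solution rolled onto tube walls, 2 h at 30 rpm; 900 ppm → 5 μg/cm^2. Solvent evaporated, 5-10 adults/tube, perforated lid, lying, RT. 48 h: heat plate 45-50° C ≤5 min; immotile/uncoordinated = dead/moribund. 100% = all dead/moribund.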

[9] = system: green peach aphid (Myzus persicae); assay: Myzus persicae spray test; conditions: foliar, 120 h, application rate 100 g/ha, after 5 days, Chinese cabbage leaf disks, read-out: activity (mortality)
In short: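 Chinese cabbage leaf disks infested with all aphid instars were sprayed with compound diluted in water containing emulsifier (1000 ppm). Mortality (%) was scored after 5 days, 100% meaning all aphids killed.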

[10] = system: larvae of the southern green stink bug (Nezara viridula); assay: Nezara viridula spray test; conditions: 96 h, after 4 days, barley plants; for mortality at 100 g/ha: application rate 100 g/ha
In short: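 Barley plants sprayed with the active compound in emulsifier-containing water, then infested with stink bug larvae. Mortality scored in % after 4 days, with 100% meaning all insects killed.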

[11] = system: larvae of the banded cucumber beetle (Diabrotica balteata); assay: Diabrotica balteata spray test; conditions: 168 h, application rate 100 g/ha (=32 μg/well), after 7 days, wheat seeds, read-out: activity (efficacy: seedlings grown)
In short: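 Wheat seeds germinated 1 day on agar were sprayed with compound diluted in water with 1000 ppm emulsifier, then infested with 10-20 Diabrotica balteata larvae. Efficacy in % scored after 7 days: 100% = seedlings grown as untreated, uninfected control; 0% = no seedlings grown.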

[12] = system: brown planthopper (Nilaparvata lugens); assay: Nilaparvata lugens spray test; conditions: 96 h, after 4 days, rice plants; for mortality at 500 g/ha: application rate 500 g/ha
Experimental: Nilaparvata lugens—Spray Test
To produce a suitable preparation of active compound, 1 part by weight of active compound is mixed with the stated amount of solvents and is diluted with water, containing an emulsifier concentration of 1000 ppm, to the desired concentration. Further test concentrations are prepared by dilution with emulsifier containing water.
Rice plants (Oryza sativa) are sprayed with a preparation of the active ingredient of the desired concentration and the plants are infested with the brown planthopper (Nilaparvata lugens).
After 4 days mortality in % is determined. 100% means all planthoppers have been killed and 0% means none of the planthoppers have been killed.

[13] = system: adult flies Musca domestica strain WHO-N; assay: Musca domestica test (MUSCDO surface treatment & contact assay); conditions: 24 hours after contact, read-out: efficacy (mortality)
Experimental: Musca domestica Test (MUSCDO Surface Treatment & Contact Assay)
as §1
In order to produce a sufficient, active ingredient containing solution it is necessary to solve the test compound in the solvent-mix (acetone at 2 mg/ml/RME 2000 ppm). This solution is pipetted onto a glazed tile and after evaporation of the acetone, adult flies of the species Musca domestica strain WHO-N are placed onto the dried surface. The exposure time is 30 minutes.
as §2

SMILES: Cc1nc([C@H](C)NC(=O)c2cc(Cl)cc(C(F)(F)F)c2)n(-c2ccc(C(=O)N3CC(F)C3)cn2)n1 [Example I-20]
- mortality at 100 ppm [1]: 100%
- mortality at 100 g/ha [2]: 100%
- mortality at 4 ppm [3]: 100%
- pest or weed control at 0.004 mg [4]: 100%
- pest or weed control at 5 µg/cm2 [5]: 100%
- pest or weed control at 1 µg/cm2, 100 g/ha [6]: 90%
- pest or weed control at 5 µg/cm2, 500 g/ha [6]: 100%
- mortality at 20 mg/m2 [7]: 80 to 100%
- pest or weed control at 5 µg/cm2, 500 g/ha [8]: 100%
- mortality at 100 g/ha [9]: 90%

SMILES: Cc1nc([C@H](C)NC(=O)c2cc(Cl)cc(C(F)(F)F)c2)n(-c2ccc(C(=O)N3CCC3)cn2)n1 [Example I-23]
- mortality at 100 ppm [1]: 90%
- mortality at 100 g/ha [2]: 100%
- mortality at 4 ppm [3]: 100%
- pest or weed control at 0.004 mg [4]: 100%
- pest or weed control at 5 µg/cm2 [5]: 100%
- pest or weed control at 1 µg/cm2, 100 g/ha [6]: 90%
- pest or weed control at 5 µg/cm2, 500 g/ha [6]: 90%
- mortality at 20 mg/m2 [7]: 80 to 100%
- pest or weed control at 5 µg/cm2, 500 g/ha [8]: 100%
- mortality at 100 g/ha [9]: 90%

SMILES: COC1CN(C(=O)c2ccc(-n3nc(C)nc3[C@H](C)NC(=O)c3cc(Cl)cc(C(F)(F)F)c3)nc2)C1 [Example I-24]
- mortality at 100 ppm [1]: 80%
- mortality at 100 g/ha [2]: 100%
- mortality at 4 ppm [3]: 100%
- pest or weed control at 0.004 mg [4]: 100%
- pest or weed control at 5 µg/cm2 [5]: 90%
- pest or weed control at 1 µg/cm2, 100 g/ha [6]: 100%
- pest or weed control at 5 µg/cm2, 500 g/ha [6]: 100%
- mortality at 20 mg/m2 [7]: 80 to 100%
- pest or weed control at 5 µg/cm2, 500 g/ha [8]: 100%
- mortality at 100 g/ha [9]: 100%

SMILES: C[C@H](NC(=O)c1cc(Cl)cc(C(F)(F)F)c1)c1ncnn1-c1ccc(C(=O)N2CCOC[C@H]2C)cn1 [Example I-33]
- mortality at 100 ppm [1]: 100%
- mortality at 100 g/ha [2]: 100%
- pest or weed control at 0.004 mg [4]: 100%
- mortality at 100 g/ha [10]: 90%
- pest or weed control at 1 µg/cm2, 100 g/ha [6]: 100%
- pest or weed control at 5 µg/cm2, 500 g/ha [6]: 100%
- pest or weed control at 5 µg/cm2, 500 g/ha [8]: 100%

SMILES: C[C@@H]1CN(C(=O)c2ccc(-n3ncnc3[C@H](C)NC(=O)c3cc(Cl)cc(C(F)(F)F)c3)nc2)C[C@@H](C)O1 [Example I-40]
- mortality at 100 ppm [1]: 90%
- pest or weed control at 32 µg/disc, 100 g/ha [11]: 100%
- mortality at 4 ppm [3]: 100%
- pest or weed control at 0.004 mg [4]: 100%
- pest or weed control at 1 µg/cm2, 100 g/ha [6]: 100%
- pest or weed control at 5 µg/cm2, 500 g/ha [6]: 100%
- mortality at 20 mg/m2 [7]: 80 to 100%
- pest or weed control at 5 µg/cm2, 500 g/ha [8]: 100%
- mortality at 100 g/ha [9]: 90%

SMILES: C[C@H](NC(=O)c1cc(Cl)cc(C(F)(F)F)c1)c1ncnn1-c1ccc(N2CCCC2=O)cn1 [Example I-54]
- mortality at 4 ppm [3]: 100%
- mortality at 100 g/ha ([12]; application rate 100 g/ha): 100%

SMILES: C[C@H](NC(=O)c1cc(C(F)(F)F)cc(C(F)(F)F)c1)c1ncnn1-c1ccc(C(=O)N2CC(=O)NC(=O)C2)cn1 [Example I-80]
- mortality at 500 g/ha ([10]; application rate 500 g/ha, read-out: activity (mortality)): 100%
- mortality at 500 g/ha [12]: 90%

SMILES: Cc1nc([C@H](C)NC(=O)c2cc(C(F)(F)F)cc(C(F)(F)F)c2)n(-c2ccc(C(=O)N3C[C@H](C)O[C@@H](C)C3)cn2)n1 [Example I-95]
- mortality at 100 ppm [1]: 100%
- pest or weed control at 32 µg/disc, 100 g/ha [11]: 100%
- mortality at 100 g/ha [2]: 100%
- pest or weed control at 0.004 mg [4]: 100%
- pest or weed control at 5 µg/cm2 [5]: 100%
- mortality at 100 g/ha [10]: 100%
- pest or weed control at 1 µg/cm2, 100 g/ha [6]: 100%
- pest or weed control at 5 µg/cm2, 500 g/ha [6]: 100%
- pest or weed control at 5 µg/cm2, 500 g/ha [8]: 100%

SMILES: Cc1nc([C@H](C)NC(=O)c2cc(OC(F)(F)F)cc(C3CC3)c2)n(-c2ccc(C(=O)N3C[C@@H](C)O[C@@H](C)C3)cn2)n1 [Example I-115]
- mortality at 100 ppm [1]: 100%
- mortality at 4 mg/m2 ([13]; surface concentration 4 mg/m^2, exposure 30 minutes): 80 to 100%
- mortality at 20 mg/m2 ([13]; surface concentration 20 mg/m^2, exposure 30 minutes): 80 to 100%
- pest or weed control at 32 µg/disc, 100 g/ha [11]: 80%
- mortality at 4 ppm [3]: 100%
- pest or weed control at 0.004 mg [4]: 100%
- pest or weed control at 5 µg/cm2 [5]: 100%
- pest or weed control at 1 µg/cm2, 100 g/ha [6]: 90%
- pest or weed control at 5 µg/cm2, 500 g/ha [6]: 90%
- pest or weed control at 5 µg/cm2, 500 g/ha [8]: 100%
- mortality at 100 g/ha [9]: 90%

SMILES: C[C@@H]1CN(C(=O)c2cnc(-n3ncnc3[C@H](C)NC(=O)c3cc(OC(F)(F)F)cc(S(C)(=O)=O)c3)nc2)C[C@H](C)O1 [Example I-145]
- pest or weed control at 32 µg/disc, 100 g/ha [11]: 100%
- mortality at 500 g/ha [12]: 100%

SMILES: C[C@H](NC(=O)c1cc(C(F)(F)F)cc(C(F)(F)F)c1)c1ncnn1-c1ncc(C(=O)N2CCCC2)cn1 [Example I-147]
- pest or weed control at 32 µg/disc, 100 g/ha [11]: 100%
- mortality at 100 g/ha [2]: 100%
- mortality at 100 g/ha [9]: 100%
- mortality at 500 g/ha [12]: 90%

Source: patent publication US20230058623A1, “NOVEL HETEROARYL-TRIAZOLE COMPOUNDS AS PESTICIDES” (Bayer Aktiengesellschaft, priority 2019, published 2023)
